The values that follow come from patent publication US20230183243A1, “HETEROARYL DERIVATIVES AND PHARMACEUTICAL COMPOSITION COMPRISING SAME AS ACTIVE INGREDIENT” (VORONOI INC., priority 2019, published 2023).

For experiment [1], the target named is LRRK2 (Homo sapiens, UniProt Q5S007). Put plainly: ScanMAX Kinase panel (DiscoverX). It is filed as binding. Further details: purchased DiscoverX Corp. (ScanMAX Kinase panel, commissioned). Conditions: read-out: % Cont @ 1 μM. On the procedure: (§1) Specifically, the enzyme (kinase) selectivity of the compound of Example 7 selected from the Example compounds of the present invention was measured by commissioning DiscoverX Corp., and an experiment was performed using a panel for ScanMAX™ Kinase analysis.
(§2) In this case, the concentration of a drug treated with the enzyme was set at 1 μM in DMSO, and percent control (% control) was defined in the same manner as in the following Expression 1.
(§3) (Example compound−Positive control)/(Negative control−Positive control)×100 [Expression 1]
(§4) Wherein the positive control represents a compound having a percent control of 0%, and the negative control represents a compound having a percent control of 100% in DMSO. For the enzyme selectivity of the present invention, the compound was also judged to have activity against the corresponding enzyme when the percent control for each of the enzymes was <30% (i.e., less than 30%).
(§5) Further, to evaluate the inhibitory activity of the compound according to the present invention against more enzymes, an experiment was performed as follows. Specifically, the enzyme (kinase) selectivity of the compound of Example 64 selected from the Example compounds of the present invention was measured by commissioning DiscoverX Corp., and an experiment was performed using a panel for ScanMAX™ Kinase analysis. In this case, the concentration of a drug treated with the enzyme was set at 1 μM in DMSO, and the percent control (% control) were defined in the same manner as in the following Expression 1.
(§6) Wherein the positive control represents a compound having a percent control of 0%, and the negative control represents a compound having a percent control of 100% in DMSO. For the enzyme selectivity of the present invention, the compound was also judged to have activity against the corresponding enzyme when the percent control for each of the enzymes was <35% (i.e., less than 35%).

The target of experiment [2] is T1, TTK (Homo sapiens, UniProt P33981).
T1 sequence (P33981 1-857): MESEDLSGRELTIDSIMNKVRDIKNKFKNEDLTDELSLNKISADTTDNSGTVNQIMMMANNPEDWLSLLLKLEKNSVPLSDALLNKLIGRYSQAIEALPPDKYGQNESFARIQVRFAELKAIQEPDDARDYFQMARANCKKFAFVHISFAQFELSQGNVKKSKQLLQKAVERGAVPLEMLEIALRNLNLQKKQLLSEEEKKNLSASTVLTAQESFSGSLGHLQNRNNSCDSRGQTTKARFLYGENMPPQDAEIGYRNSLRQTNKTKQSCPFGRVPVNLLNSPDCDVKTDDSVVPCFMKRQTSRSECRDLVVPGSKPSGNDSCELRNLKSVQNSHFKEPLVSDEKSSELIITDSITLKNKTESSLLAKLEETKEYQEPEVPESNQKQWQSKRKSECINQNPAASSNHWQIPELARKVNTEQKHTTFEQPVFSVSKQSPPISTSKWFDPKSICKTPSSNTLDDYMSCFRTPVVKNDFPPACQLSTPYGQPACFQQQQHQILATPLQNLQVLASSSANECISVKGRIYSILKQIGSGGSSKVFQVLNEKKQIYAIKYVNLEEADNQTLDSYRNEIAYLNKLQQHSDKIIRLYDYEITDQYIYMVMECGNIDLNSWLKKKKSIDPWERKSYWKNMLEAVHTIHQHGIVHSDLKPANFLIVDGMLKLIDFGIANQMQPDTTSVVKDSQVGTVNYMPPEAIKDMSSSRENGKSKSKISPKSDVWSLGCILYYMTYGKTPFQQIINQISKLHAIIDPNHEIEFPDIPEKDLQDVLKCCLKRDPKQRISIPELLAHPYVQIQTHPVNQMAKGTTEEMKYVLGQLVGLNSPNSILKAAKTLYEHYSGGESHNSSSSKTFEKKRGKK
In words: ScanMAX Kinase panel (DiscoverX). It is filed as binding. Further details: purchased DiscoverX Corp. (ScanMAX Kinase panel, commissioned). Conditions: read-out: % Cont @ 1 μM. The protocol:
as §1, §2, §3, §4, §5, §6

Experiment [3] addresses T1, TTK. Put plainly: TTK enzyme activity, ADP-Glo kinase assay. It is filed as biochemical. Also on record: purchased SignalChem T20-10G. The conditions noted are these: purified human TTK, ATP 10 μM, 25° C., 2 hours. In a few lines: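 Purified human TTK (25 ng) incubated with 10 μM ATP and substrate (0.2 μg) for 2 h at 25 °C in Tris-HCl pH 7.4, MgCl2, BSA, DTT buffer. ADP formation read by ADP-Glo; inhibition calculated against untreated solvent control.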
In general terms: ADP-Glo turns the ADP formed in a reaction into a luminescent signal.

The target in experiment [4] is T2, MAPKAPK2 (Homo sapiens, UniProt P49137).
T2 construct: purchased DiscoverX Corp. (ScanMAX Kinase panel, commissioned)
In words: ScanMAX Kinase panel (DiscoverX). The class given is binding. Conditions: read-out: % Cont @ 1 μM. The protocol:
as §1, §2, §3, §4, §5, §6

The target in experiment [5] is T3, JNK1 (Homo sapiens, UniProt P45983).
T3 construct: purchased DiscoverX Corp. (ScanMAX Kinase panel, commissioned)
In words: ScanMAX Kinase panel (DiscoverX). It is filed as binding. On the procedure:
as §1, §2, §3, §4, §5, §6

Experiment [6] deals with T4, JNK3 (Homo sapiens, UniProt P53779).
T4 construct: purchased DiscoverX Corp. (ScanMAX Kinase panel, commissioned)
Put plainly: ScanMAX Kinase panel (DiscoverX). It is filed as binding. On the procedure:
as §1, §2, §3, §4, §5, §6

Experiment [7] addresses T5, LRRK2(G2019S) (Homo sapiens, UniProt Q5S007, G2019S).
T5 construct: purchased DiscoverX Corp. (ScanMAX Kinase panel, commissioned)
In words: ScanMAX Kinase panel (DiscoverX). The class given is binding. The conditions noted are these: read-out: % Cont @ 1 μM. The protocol: as §1, §2, §3, §4, §5, §6

Experiment [8] deals with T6, GRK4 (Homo sapiens, UniProt P32298).
T6 construct: purchased DiscoverX Corp. (ScanMAX Kinase panel, commissioned)
Put plainly: ScanMAX Kinase panel (DiscoverX). It is filed as binding. The conditions noted are these: read-out: % Cont @ 1 μM. On the procedure:
as §1, §2, §3, §4, §5, §6

The target in experiment [9] is T7, JNK2 (Homo sapiens, UniProt P45984).
T7 construct: purchased DiscoverX Corp. (ScanMAX Kinase panel, commissioned)
Put plainly: ScanMAX Kinase panel (DiscoverX). It is filed as binding. On the procedure: as §1, §2, §3, §4, §5, §6

Experiment [10] addresses T8, ABL1(F317L)-nonphosphorylated (Homo sapiens, UniProt P00519, F317L).
T8 construct: purchased DiscoverX Corp. (ScanMAX Kinase panel, commissioned)
Put plainly: ScanMAX Kinase panel (DiscoverX). It is filed as binding. Conditions: read-out: % Cont @ 1 μM. On the procedure:
as §1, §2, §3, §4, §5, §6

The target in experiment [11] is T9, SRPK3 (Homo sapiens, UniProt Q9UPE1).
T9 construct: purchased DiscoverX Corp. (ScanMAX Kinase panel, commissioned)
Put plainly: ScanMAX Kinase panel (DiscoverX). The class given is binding. The conditions noted are these: read-out: % Cont @ 1 μM. The protocol:
as §1, §2, §3, §4, §5, §6

Experiment [12] addresses T10, RIPK5 (Homo sapiens, UniProt Q6XUX3).
T10 construct: purchased DiscoverX Corp. (ScanMAX Kinase panel, commissioned)
Put plainly: ScanMAX Kinase panel (DiscoverX). It is filed as binding. Conditions: read-out: % Cont @ 1 μM. On the procedure: as §1, §2, §3, §4, §5, §6

T5 sequence (Q5S007 whole entry G2019S): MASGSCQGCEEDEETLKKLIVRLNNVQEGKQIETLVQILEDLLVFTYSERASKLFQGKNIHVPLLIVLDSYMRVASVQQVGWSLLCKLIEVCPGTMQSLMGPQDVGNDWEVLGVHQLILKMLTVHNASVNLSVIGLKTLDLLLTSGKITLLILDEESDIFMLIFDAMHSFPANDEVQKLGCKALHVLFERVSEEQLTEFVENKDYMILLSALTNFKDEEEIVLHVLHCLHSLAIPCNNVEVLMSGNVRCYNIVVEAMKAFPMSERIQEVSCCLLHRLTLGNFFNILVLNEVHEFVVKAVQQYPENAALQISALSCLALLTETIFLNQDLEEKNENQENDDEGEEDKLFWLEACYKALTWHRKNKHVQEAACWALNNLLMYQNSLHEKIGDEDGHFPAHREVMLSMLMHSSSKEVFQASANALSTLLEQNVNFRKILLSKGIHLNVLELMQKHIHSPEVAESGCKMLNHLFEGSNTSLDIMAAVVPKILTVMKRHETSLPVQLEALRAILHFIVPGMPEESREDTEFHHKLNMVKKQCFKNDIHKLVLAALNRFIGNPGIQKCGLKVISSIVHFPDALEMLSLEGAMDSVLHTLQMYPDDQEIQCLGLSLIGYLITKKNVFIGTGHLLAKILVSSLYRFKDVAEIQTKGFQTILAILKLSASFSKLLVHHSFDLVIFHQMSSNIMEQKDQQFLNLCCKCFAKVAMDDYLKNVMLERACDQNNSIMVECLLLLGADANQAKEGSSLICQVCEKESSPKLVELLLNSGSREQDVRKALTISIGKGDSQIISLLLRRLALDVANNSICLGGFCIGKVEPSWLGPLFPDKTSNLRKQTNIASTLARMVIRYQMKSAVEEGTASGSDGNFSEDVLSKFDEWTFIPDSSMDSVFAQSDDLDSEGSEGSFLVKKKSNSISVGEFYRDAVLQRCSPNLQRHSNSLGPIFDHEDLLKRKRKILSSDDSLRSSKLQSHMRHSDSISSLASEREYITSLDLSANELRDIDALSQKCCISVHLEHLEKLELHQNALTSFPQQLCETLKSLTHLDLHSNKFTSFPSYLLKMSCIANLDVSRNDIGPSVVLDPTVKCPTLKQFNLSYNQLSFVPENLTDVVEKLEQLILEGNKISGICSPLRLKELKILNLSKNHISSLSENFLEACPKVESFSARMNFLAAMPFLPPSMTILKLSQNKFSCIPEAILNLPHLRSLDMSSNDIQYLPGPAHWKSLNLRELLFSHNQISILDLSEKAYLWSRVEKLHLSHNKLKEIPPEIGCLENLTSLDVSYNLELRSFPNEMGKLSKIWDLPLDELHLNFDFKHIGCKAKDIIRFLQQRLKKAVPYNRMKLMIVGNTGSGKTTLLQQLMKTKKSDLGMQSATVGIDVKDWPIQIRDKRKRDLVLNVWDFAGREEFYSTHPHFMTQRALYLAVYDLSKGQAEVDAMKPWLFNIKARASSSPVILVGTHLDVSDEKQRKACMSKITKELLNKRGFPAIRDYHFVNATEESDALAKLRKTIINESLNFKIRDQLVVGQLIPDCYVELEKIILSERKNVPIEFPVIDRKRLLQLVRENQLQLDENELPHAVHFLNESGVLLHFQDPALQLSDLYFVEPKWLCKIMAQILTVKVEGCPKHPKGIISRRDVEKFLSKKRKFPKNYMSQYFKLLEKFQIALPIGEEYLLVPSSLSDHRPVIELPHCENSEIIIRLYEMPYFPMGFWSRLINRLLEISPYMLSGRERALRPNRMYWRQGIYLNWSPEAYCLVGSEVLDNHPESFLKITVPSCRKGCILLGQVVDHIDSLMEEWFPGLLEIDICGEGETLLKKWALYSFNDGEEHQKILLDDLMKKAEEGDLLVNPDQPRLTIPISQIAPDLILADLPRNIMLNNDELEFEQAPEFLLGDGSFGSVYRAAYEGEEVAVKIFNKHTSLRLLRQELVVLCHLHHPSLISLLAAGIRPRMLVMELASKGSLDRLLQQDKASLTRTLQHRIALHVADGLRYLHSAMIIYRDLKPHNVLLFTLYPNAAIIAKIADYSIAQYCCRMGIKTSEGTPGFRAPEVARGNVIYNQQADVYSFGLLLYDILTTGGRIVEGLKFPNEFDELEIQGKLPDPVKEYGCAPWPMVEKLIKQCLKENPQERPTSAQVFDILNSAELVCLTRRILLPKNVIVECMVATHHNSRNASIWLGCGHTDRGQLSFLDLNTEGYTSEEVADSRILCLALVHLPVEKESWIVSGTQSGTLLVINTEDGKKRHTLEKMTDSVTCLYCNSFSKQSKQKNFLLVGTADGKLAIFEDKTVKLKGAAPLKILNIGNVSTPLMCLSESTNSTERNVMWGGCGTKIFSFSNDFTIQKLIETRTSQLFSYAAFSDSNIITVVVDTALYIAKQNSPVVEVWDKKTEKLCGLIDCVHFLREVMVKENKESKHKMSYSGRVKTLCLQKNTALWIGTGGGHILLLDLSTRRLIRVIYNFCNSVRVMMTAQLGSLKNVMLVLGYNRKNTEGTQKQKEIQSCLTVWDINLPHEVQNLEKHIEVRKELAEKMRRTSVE
T6 sequence (P32298 whole entry): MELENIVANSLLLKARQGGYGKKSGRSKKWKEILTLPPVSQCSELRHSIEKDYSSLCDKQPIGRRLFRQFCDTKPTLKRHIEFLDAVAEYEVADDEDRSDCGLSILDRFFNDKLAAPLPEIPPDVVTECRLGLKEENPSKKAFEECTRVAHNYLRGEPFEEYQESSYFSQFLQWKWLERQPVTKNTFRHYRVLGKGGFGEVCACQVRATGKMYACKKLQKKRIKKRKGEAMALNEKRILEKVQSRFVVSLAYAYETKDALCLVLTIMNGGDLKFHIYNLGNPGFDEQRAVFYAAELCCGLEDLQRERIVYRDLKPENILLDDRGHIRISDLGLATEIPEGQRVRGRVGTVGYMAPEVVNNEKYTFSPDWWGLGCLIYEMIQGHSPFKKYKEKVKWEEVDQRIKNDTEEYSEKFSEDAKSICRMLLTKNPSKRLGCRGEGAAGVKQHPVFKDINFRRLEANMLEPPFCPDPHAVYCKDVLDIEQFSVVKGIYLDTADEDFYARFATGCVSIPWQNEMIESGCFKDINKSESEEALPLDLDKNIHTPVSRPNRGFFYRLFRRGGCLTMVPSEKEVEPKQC
T2 sequence (P49137 whole entry): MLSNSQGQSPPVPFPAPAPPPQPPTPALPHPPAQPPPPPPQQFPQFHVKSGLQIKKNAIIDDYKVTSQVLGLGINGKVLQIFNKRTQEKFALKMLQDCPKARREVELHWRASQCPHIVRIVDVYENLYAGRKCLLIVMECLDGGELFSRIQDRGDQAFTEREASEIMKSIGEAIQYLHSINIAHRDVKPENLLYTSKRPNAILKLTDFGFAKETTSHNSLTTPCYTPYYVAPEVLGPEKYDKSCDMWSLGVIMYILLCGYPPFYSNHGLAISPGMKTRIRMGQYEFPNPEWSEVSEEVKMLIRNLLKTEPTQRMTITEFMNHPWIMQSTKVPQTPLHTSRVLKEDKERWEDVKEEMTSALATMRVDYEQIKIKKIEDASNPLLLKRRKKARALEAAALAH
T7 sequence (P45984 whole entry): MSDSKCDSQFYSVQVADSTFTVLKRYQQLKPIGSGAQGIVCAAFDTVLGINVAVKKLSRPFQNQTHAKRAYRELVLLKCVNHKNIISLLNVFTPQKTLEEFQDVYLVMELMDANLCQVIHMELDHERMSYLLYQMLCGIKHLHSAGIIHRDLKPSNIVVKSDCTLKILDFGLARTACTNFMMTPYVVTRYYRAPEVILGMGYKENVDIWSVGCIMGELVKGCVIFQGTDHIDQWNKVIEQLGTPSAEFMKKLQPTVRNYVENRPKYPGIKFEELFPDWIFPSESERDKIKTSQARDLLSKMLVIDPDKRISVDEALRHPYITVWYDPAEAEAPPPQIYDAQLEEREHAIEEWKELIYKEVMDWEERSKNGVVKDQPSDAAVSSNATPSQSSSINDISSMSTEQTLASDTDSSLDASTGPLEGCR
T8 sequence (P00519 whole entry F317L): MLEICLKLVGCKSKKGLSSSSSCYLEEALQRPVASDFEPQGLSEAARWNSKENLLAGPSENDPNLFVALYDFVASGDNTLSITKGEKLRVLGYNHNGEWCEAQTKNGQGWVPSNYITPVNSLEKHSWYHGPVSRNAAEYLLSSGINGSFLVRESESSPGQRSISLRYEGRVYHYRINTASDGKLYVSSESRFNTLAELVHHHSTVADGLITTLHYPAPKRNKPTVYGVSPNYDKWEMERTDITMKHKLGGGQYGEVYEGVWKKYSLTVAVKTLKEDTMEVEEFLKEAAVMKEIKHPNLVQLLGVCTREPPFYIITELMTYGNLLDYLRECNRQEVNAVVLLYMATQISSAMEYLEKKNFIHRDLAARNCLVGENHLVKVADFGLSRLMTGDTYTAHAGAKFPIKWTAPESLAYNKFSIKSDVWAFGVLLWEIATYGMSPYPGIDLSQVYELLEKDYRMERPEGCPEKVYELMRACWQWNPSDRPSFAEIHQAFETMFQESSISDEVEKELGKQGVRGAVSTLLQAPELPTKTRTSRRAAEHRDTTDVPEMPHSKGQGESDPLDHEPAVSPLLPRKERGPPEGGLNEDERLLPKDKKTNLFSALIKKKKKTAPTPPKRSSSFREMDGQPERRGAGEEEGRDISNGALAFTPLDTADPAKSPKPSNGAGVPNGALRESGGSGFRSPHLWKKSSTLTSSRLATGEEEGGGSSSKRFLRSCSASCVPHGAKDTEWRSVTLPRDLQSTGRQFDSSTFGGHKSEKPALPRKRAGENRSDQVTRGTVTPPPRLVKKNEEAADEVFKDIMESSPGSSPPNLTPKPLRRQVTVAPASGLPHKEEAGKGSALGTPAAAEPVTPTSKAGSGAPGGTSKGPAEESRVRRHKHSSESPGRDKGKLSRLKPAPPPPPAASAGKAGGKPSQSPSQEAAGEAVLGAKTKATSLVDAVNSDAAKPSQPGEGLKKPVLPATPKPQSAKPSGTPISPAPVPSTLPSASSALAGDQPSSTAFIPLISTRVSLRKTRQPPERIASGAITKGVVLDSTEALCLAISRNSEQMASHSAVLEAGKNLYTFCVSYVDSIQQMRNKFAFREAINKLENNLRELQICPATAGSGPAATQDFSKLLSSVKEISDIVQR
LRRK2, sequence (Q5S007 whole entry): as the sequence (Q5S007 whole entry G2019S) above, with S2019G counted along it

A word on the IC50: it is the concentration that gives 50% inhibition. Higher therefore signals a need for much substance. As to `COc1cc(-c2ccnn2C)ccc1Nc1nc(NC2CCCCC2)c2c(C#N)c[nH]c2n1` [Example 7, 4-(cyclohexylamino)-2-((2-methoxy-4-(1-methyl-1H-pyrazol-5-yl)phenyl)amino)-7H-pyrrolo[2,3-d] pyrimidine-5-carbonitrile], the percent of control binding at 1 µM was 4.8% in experiment [1] and 17% in experiment [12]. For the same compound, the percent of control at 1 µM in experiment [2] was found to be 0.25%. Also, the IC50 in experiment [3] was < 50 nM. Moreover, the remaining binding at 1 µM in experiment [4] worked out at 28%; in [8], 29%; in [10], 28%; in experiment [11], 30%. Further, the “% Cont @ 1 μM” value in experiment [5] was 2%; in [6], 4.3%; in experiment [9], 13%. Further, the percent of control (kinase binding) at 1 µM in experiment [7] came out at 2.7%.
On to `COc1cc(N2CCCC2=O)ccc1Nc1cc(NC2CCCCC2)c2c(C#N)c[nH]c2n1` [Example 64, 4-(cyclohexylamino)-6-((2-methoxy-4-(2-oxopyrrolidin-1-yl)phenyl)amino)-1H-pyrrolo[2,3-b] pyridine-3-carbonitrile], for which the percent of control binding at 1 µM in experiment [1] was 14%; in experiment [12] it was 30%. Also, the percent of control at 1 µM in [2] came out at 0.25%. Further, the IC50 in [3] was < 50 nM. In addition, the remaining binding at 1 µM in [4] was 28%; in experiment [8], 26%; in experiment [10], 26%; in experiment [11] it was 28%. Also, the “% Cont @ 1 μM” value in experiment [5] was determined as 0.9%; in experiment [6], 1.7%; in experiment [9], 4.1%. Moreover, the percent of control (kinase binding) at 1 µM in experiment [7] was determined as 17%.
